system: MIA PaCa-2 cells; experiment: Cellular viability assay (Cell Titer Fluor); format: cell-based; details: 72 hours incubation
Description: Cell viability were performed using the Cell Titer Fluor™ Assays (Promega G6080). MIA PaCa-2 cells are grown in DMEM media with 10% FBS, 1% Pen/Strep/Amphotericin B. Cells are trypsinized and counted using the Nexcelom cellometer. 5,000 cells/100 μl are plated per well in Greiner black/clear 96-well plates. Cells should be within 10 passages of stock vial for use in workflow. Three distinct lineages of these cells are cultured in parallel for multiple passages and 5 full plates of each lineage are seeded for one run. Small molecule compounds are provided as 100 mM stock solutions in DMSO. Dilution series plates are prepared using 1:3 dilution to achieve a 7 point concentration on a half log scale. After addition of compounds, cells are incubated 37° C., 5% CO2 for 72 hours.
For each test compound condition, triplicate technical replicates are used. For each reference compound, duplicate technical replicates are used. At the end of the 72-hour incubation, spent media is discarded. Then, 100 μl of GF-AFC diluted in DMEM (serum and phenol red-free) is added at 1:2000 concentration (5 μl/10 ml). Cells are incubated with reaction buffer for 1 h at 37° C. Fluorescence is then read on the plate reader with excitation wavelength of 390 nm and emission wavelength of 505 nm. All raw data are analyzed on Microsoft Excel 2010 and normalized to the DMSO vehicle control. Relative results are copied into GraphPad Prism for non-linear regression analysis and determination of IC50 and other dose curve parameters (min, max, Hill slope, etc.) using the log (inhibitor) vs. response equation. Values are as follows: A represents an IC50 of <[…], B represents an IC50 of 1 mM to 10 mM, C represents an IC50 of >10 mM.

Row | IC50 [µM] | SMILES
1 | > 10 | O=C(NCc1cc(-c2cc(F)ccc2O)[nH]n1)c1ccccc1OC(F)(F)F [Compound 52]

same assay, conditions: Homo sapiens, MIA PaCa-2, 72 h, 72 hours incubation

Row | IC50 [µM] | SMILES
2 | 1 to 10 | COc1ccc(O)cc1-c1nc(CNC(=O)c2ccccc2OC(F)F)n[nH]1 [Compound 63, 2-(Difluoromethoxy)-N-((5-(5-hydroxy-2-methoxyphenyl)-1H-1,2,4-triazol-3-yl)methyl) benzamide]
3 | 1 to 10 | O=C(NCc1n[nH]c(-c2cc(O)ccc2O)n1)c1ccccc1OC(F)F [Compound 64]
4 | < 1 | O=C(NCc1cc(-c2cccs2)[nH]n1)c1ccccc1N1CCC(F)(F)CC1 [Compound 65]
5 | < 1 | O=C(NCc1cc(-c2cccs2)[nH]n1)c1ccccc1N1CCC(F)(F)C1 [Compound 66]
6 | < 1 | O=C(NCc1cc(-c2cccs2)[nH]n1)c1ccccc1N1CCCCC1 [Compound 68]
7 | < 1 | O=C(NCc1cc(-c2cccs2)[nH]n1)c1ccccc1N1CCOCC1 [Compound 69]
8 | > 10 | O=C(NCc1cc(-c2cccs2)[nH]n1)c1ccccc1N1CCS(=O)(=O)CC1 [Compound 70]
9 | 1 to 10 | CN1CCN(c2ccccc2C(=O)NCc2cc(-c3cccs3)[nH]n2)CC1 [Compound 71]
10 | < 1 | O=C(NCc1cc(-c2cccs2)[nH]n1)c1ccccc1N1CCCC1 [Compound 72]
11 | > 10 | O=C(NCc1n[nH]c(-c2cccs2)n1)c1ccccc1NCC(F)F [Compound 73]
12 | > 10 | O=C(NCc1n[nH]c(-c2cccs2)n1)c1ccccc1N1CC(F)(F)C1 [Compound 74]
13 | < 1 | O=C(NCc1n[nH]c(-c2cccs2)n1)c1ccccc1N1CCC(F)(F)C1 [Compound 75]
14 | 1 to 10 | O=C(NCc1n[nH]c(-c2cccs2)n1)c1ccccc1N1CCC(F)(F)CC1 [Compound 76, 2-(4,4-difluoropiperidin-1-yl)-N-((5-(thiophen-2-yl)-1H-1,2,4-triazol-3-yl)methyl) benzamide]
15 | < 1 | O=C(NCc1cc(-c2cccs2)[nH]n1)c1cc(C(F)(F)F)ccc1N1CCCC(F)(F)C1 [Compound 78]
16 | 1 to 10 | O=C(NCc1cc(-c2cccs2)[nH]n1)c1cccc(C(F)(F)F)c1N1CCCCC1 [Compound 79]
17 | < 1 | O=C(NCc1cc(-c2cccs2)[nH]n1)c1cc(F)ccc1N1CCCCC1 [Compound 80, 5-fluoro-2-(piperidin-1-yl)-N-((5-(thiophen-2-yl)-1H-pyrazol-3-yl)methyl) benzamide]
18 | 1 to 10 | O=C(NCc1cc(-c2cccs2)[nH]n1)c1cc(O)ccc1N1CCCC(F)(F)C1 [Compound 81]
19 | 1 to 10 | O=C(NCc1cc(-c2cccs2)[nH]n1)c1cccc(C(F)(F)F)c1N1CCCC1 [Compound 82]
20 | 1 to 10 | O=C(NCc1cc(-c2cccs2)[nH]n1)c1cc(C(F)(F)F)ccc1N1CCCC1 [Compound 83]
21 | 1 to 10 | N#Cc1ccc(N2CCCC2)c(C(=O)NCc2cc(-c3cccs3)[nH]n2)c1 [Compound 84]
22 | < 1 | N#Cc1ccc(N2CCCC(F)(F)C2)c(C(=O)NCc2cc(-c3cccs3)[nH]n2)c1 [Compound 85]
23 | > 10 | O=C(NCc1n[nH]c(-c2cccs2)n1)c1nccnc1N1CC(F)(F)C1 [Compound 86]
24 | > 10 | O=C(NCc1n[nH]c(-c2cccs2)n1)c1nccnc1N1CCC(F)(F)C1 [Compound 87, 3-(3,3-difluoropyrrolidin-1-yl)-N-((5-(thiophen-2-yl)-1H-1,2,4-triazol-3-yl)methyl) pyrazine-2-carboxamide]
25 | > 10 | O=C(NCc1cc(-c2cccs2)[nH]n1)c1cccnc1N1CC(F)(F)C1 [Compound 88]
26 | > 10 | O=C(NCc1n[nH]c(-c2cccs2)n1)c1nccnc1N1CCC(F)(F)CC1 [Compound 89]

Continued, molecule first:

Row | SMILES | IC50 [µM]
27 | COc1ccc(F)cc1-c1nc(CNC(=O)c2cc(F)ccc2OC(F)F)n[nH]1 [Comp 137] | < 1
28 | O=C(NCc1cc(-c2cccs2)[nH]n1)c1ccccc1OC(F)F [Compound 4] | > 10
29 | O=C(NCc1cc(-c2cccs2)[nH]n1)c1ccccc1OC(F)(F)F [Compound 5] | > 10
30 | O=C(NCc1n[nH]c(-c2cccs2)n1)c1ccccc1CC(F)(F)F [Compound 8] | > 10
31 | O=C(NCc1cc(-c2cccs2)[nH]n1)c1ccc(O)cc1C(F)(F)F [Compound 13] | > 10
32 | O=C(NCc1n[nH]c(-c2cccs2)n1)c1ccccc1OC(F)(F)F [Compound 14] | > 10
33 | O=C(NCc1n[nH]c(-c2cccs2)n1)c1ccccc1OC(F)F [Compound 15] | > 10
34 | Cc1cscc1-c1cc(CNC(=O)c2ccccc2OC(F)(F)F)n[nH]1 [Compound 16, N-((5-(4-methylthiophen-3-yl)-1H-pyrazol-3-yl)methyl)-2-(trifluoromethoxy) benzamide] | > 10
35 | Cc1sccc1-c1cc(CNC(=O)c2ccccc2OC(F)(F)F)n[nH]1 [Compound 17] | > 10
36 | COc1ccc(C(F)(F)F)cc1-c1cc(CNC(=O)c2ccccc2OC(F)(F)F)n[nH]1 [Compound 20] | > 10
37 | O=C(NCc1cc(-c2csc(Cl)c2)[nH]n1)c1ccccc1OC(F)(F)F [Compound 21] | > 10
38 | O=C(NCc1cc(-c2ccsc2Cl)[nH]n1)c1ccccc1OC(F)(F)F [Compound 22] | > 10
39 | Cc1cn[nH]c1-c1cc(CNC(=O)c2ccccc2OC(F)(F)F)n[nH]1 [Compound 24] | > 10
40 | O=C(NCc1cc(-c2ccn[nH]2)[nH]n1)c1ccccc1OC(F)(F)F [Compound 25] | > 10
41 | COc1ncccc1-c1cc(CNC(=O)c2ccccc2OC(F)(F)F)n[nH]1 [Compound 27] | > 10
42 | O=C(NCc1cc(-c2cccnc2O)[nH]n1)c1ccccc1OC(F)(F)F [Compound 28] | > 10
43 | O=C(NCc1cc(-c2cccc3cn[nH]c23)[nH]n1)c1ccccc1OC(F)(F)F [Compound 29] | > 10
44 | CN(C)c1ccccc1-c1cc(CNC(=O)c2ccccc2OC(F)(F)F)n[nH]1 [Compound 30] | > 10
45 | COc1ccccc1-c1cc(CNC(=O)c2ccccc2OC(F)(F)F)n[nH]1 [Compound 31] | < 1
46 | COc1ccncc1-c1cc(CNC(=O)c2ccccc2OC(F)(F)F)n[nH]1 [Compound 33] | 1 to 10

Row | SMILES | IC50 [µM]
47 | COc1cccnc1-c1nc(CNC(=O)c2ccccc2OC(F)(F)F)n[nH]1 [Compound 34, N-((5-(3-methoxypyridin-2-yl)-1H-1,2,4-triazol-3-yl)methyl)-2-(trifluoromethoxy)benzamide] | 1 to 10
48 | COc1ccncc1-c1nc(CNC(=O)c2ccccc2OC(F)(F)F)n[nH]1 [Compound 35] | 1 to 10
49 | COc1ccsc1-c1cc(CNC(=O)c2ccccc2OC(F)(F)F)n[nH]1 [Compound 36] | < 1
50 | COc1cnccc1-c1cc(CNC(=O)c2ccccc2OC(F)(F)F)n[nH]1 [Compound 37] | > 10
51 | COc1ccc(OC)c(-c2cc(CNC(=O)c3ccccc3OC(F)(F)F)n[nH]2)c1 [Compound 39] | > 10
52 | O=C(NCc1cc(-c2cc(O)ccc2O)[nH]n1)c1ccccc1OC(F)(F)F [Compound 40, N-((5-(2,5-dihydroxyphenyl)-1H-pyrazol-3-yl)methyl)-2-(trifluoromethoxy) benzamide] | > 10
53 | O=C(NCc1cc(-c2cccc(O)c2O)[nH]n1)c1ccccc1OC(F)(F)F [Compound 43] | > 10
54 | CCOc1ccc(F)cc1-c1cc(CNC(=O)c2ccccc2OC(F)(F)F)n[nH]1 [Compound 44] | 1 to 10
55 | CCOc1ccc(Cl)cc1-c1cc(CNC(=O)c2ccccc2OC(F)F)n[nH]1 [Compound 47] | > 10
56 | COc1ccc(Cl)cc1-c1cc(CNC(=O)c2ccccc2OC(F)(F)F)n[nH]1 [Compound 48] | 1 to 10
57 | COc1c(F)cc(F)cc1-c1cc(CNC(=O)c2ccccc2OC(F)(F)F)n[nH]1 [Compound 49] | 1 to 10
58 | O=C(NCc1cc(-c2cc(F)cc(F)c2O)[nH]n1)c1ccccc1OC(F)(F)F [Compound 50] | > 10
59 | COc1ccc(F)cc1-c1cc(CNC(=O)c2ccccc2OC(F)(F)F)n[nH]1 [Compound 51] | < 1
60 | O=C(NCc1cc(-c2ccccc2O)[nH]n1)c1ccccc1OC(F)(F)F [Compound 53] | < 1
61 | CCOc1ccccc1-c1nc(CNC(=O)c2ccccc2OC(F)(F)F)n[nH]1 [Compound 57] | < 1
62 | CCOc1ccccc1-c1nc(CNC(=O)c2ccccc2OC(F)F)n[nH]1 [Compound 58] | < 1
63 | CCOc1ccc(Br)cc1-c1nc(CNC(=O)c2ccccc2OC(F)F)n[nH]1 [Compound 59] | > 10
64 | O=C(NCc1n[nH]c(-c2ccccc2O)n1)c1ccccc1OC(F)F [Compound 60, 2-(Difluoromethoxy)-N-((5-(2-hydroxyphenyl)-1H-1,2,4-triazol-3-yl)methyl) benzamide] | < 1
65 | O=C(NCc1n[nH]c(-c2cccc(O)c2O)n1)c1ccccc1OC(F)F [Compound 61, 2-(Difluoromethoxy)-N-((5-(2,3-dihydroxyphenyl)-1H-1,2,4-triazol-3-yl)methyl) benzamide] | 1 to 10
66 | COc1c(O)cccc1-c1nc(CNC(=O)c2ccccc2OC(F)F)n[nH]1 [Compound 62, 2-(difluoromethoxy)-N-((5-(3-hydroxy-2-methoxyphenyl)-1H-1,2,4-triazol-3-yl)methyl) benzamide] | 1 to 10

Reference: US11091447B2, “UBE2K modulators and methods for their use” (Berg LLC, priority 2020, dated 2021)
